Reference: patent publication US8778871B2 (Takeda Pharmaceutical Company Limited, priority 2004, dated 2014)
Non-standard residues stand in square brackets, D forms with d. Residues, ends and D or L forms follow the SMILES beside them. *: point of attachment. Propanoyl(3-(3-pyridyl)) = O=C(CCc1cccnc1)*; Arg(Me) = CNC(=N)NCCC[C@H](N)C(=O)O; d4Pal = N[C@H](Cc1ccncc1)C(=O)O; azaGly = NNC(=O)O

How the values were obtained:
hOT7T175 [1] = biological target: T1, hOT7T175 (Homo sapiens, UniProt Q969F8); assay: Intracellular Ca ion level-increasing activity using FLIPR (180 seconds; specific activity to Metastin (1-54)); format: cell-based; details: hOT7T175/CHO, change in intracellular calcium ion level for 180 seconds, Tables 21-23
T1 construct: expressed in transfected cells
T1 sequence (Q969F8 whole entry L364H): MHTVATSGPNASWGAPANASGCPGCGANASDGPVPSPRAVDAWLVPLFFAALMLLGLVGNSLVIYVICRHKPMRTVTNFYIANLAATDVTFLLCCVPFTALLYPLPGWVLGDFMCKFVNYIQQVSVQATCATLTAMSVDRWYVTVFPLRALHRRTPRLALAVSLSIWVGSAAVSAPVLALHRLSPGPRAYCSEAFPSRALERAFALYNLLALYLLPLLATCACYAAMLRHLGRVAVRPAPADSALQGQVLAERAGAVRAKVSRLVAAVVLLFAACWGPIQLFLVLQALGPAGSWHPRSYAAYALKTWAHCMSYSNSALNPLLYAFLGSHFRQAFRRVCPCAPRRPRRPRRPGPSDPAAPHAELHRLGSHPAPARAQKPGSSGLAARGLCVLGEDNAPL

hOT7T175 [2] = biological target: T2, hOT7T175 (Homo sapiens, UniProt Q969F8, L364H); format: cell-based; details: hOT7T175/CHO, FLIPR, evaluation for 40 seconds after initiation of the reaction
T2 construct: expressed in transfected cells
T2 sequence (Q969F8 whole entry L364H): as above
Protocol: The intracellular Ca ion level-increasing activity was measured using FLIPR as in TEST EXAMPLE 2.

[3] = test system: human colonic carcinoma-derived cell line SW620; assay: Tumor growth inhibition activity in tumor-bearing mice; format: in vivo, mouse; details: for tumor growth inhibition (tumor size) compared to the vehicle group: s.c. osmotic pump; for effect of tumor growth inhibition relative to Metastin: in vivo
Protocol: The abscissa denotes the number of days after injection. The bar on the abscissa designates a dosing period. The ordinate denotes a tumor size (mm^3).
On the following day, human colonic carcinoma-derived cell line SW620 (ATCC) was dissolved in 20 mM phosphate buffered saline (pH 7.2)(PBS) containing 200 μL of 0.15M NaCl at a density of 2×10^6 cells. The resulting solution was subcutaneously injected into the left flank of the mice above. The day when the cells were injected was made Day 0. Tumor was measured with an electronic caliper every other or 2 other days during Days 4 to 13 from the cell administration, and tumor size was calculated by the equation: (shorter diameter)^2×longer diameter/2.

[4] = Induction of ovulation in immature rat using metastin derivatives; format: in vivo; details: for progesterone level compared with hCG administration / dose to be administered for induction of ovulation equivalent to hCG / number of oocytes in average per rat: eCG-primed immature female Wistar rats; for dose to be administered for induction of ovulation equivalent to hCG: s.c.; for blood progesterone level: relative to Group A (hCG)
Protocol: Equine chorionic gonadotropin (eCG, serotropin, Dainippon Pharmaceutical Co., Ltd.) was dissolved in saline (Otsuka Pharmaceutical Co., Ltd.) in a concentration of 100 IU/mL. Using a 1 ml tuberculin syringe and a 26-gauge needle (both by Terumo Co., Ltd.), eCG was subcutaneously injected into the dorsal area of female Wistar rats of 23 days old after birth (Charles River Japan, Inc.) in a dose of 10 IU/animal, during 9:00 to 10:00 AM. Following the eCG injection, the animal was grouped after 47 to 48 hours as shown below, to which groups, each drug was injected.
Group B (5 rats): Compound No. 305 was dissolved in saline at 33.3 nmol/mL and the solution was subcutaneously injected into the back in a dose of 6.7 nmol/animal.
Group C (5 rats): Compound No. 305 was dissolved in saline at […] and the solution was subcutaneously injected into the back in a dose of 2.0 nmol/animal.
Group D (5 rats): Compound No. 322 was dissolved in saline at 33.3 nmol/mL and the solution was subcutaneously injected into the back in a dose of 6.7 nmol/animal.
Group E (5 rats): Compound No. 322 was dissolved in saline at 10.0 nmol/mL and the solution was subcutaneously injected into the back in a dose of 2.0 nmol/animal.
Group F (6 rats): Saline was subcutaneously injected into the back in a dose of 200 μL/animal.
After administration of these drugs, the animal was sacrificed by decapitation after 24 to 25 hours to recover blood, bilateral oviducts and uterus. In collecting blood, 90 μl of 10 KIU/mL aprotinin solution (Trasylol, Bayer) containing 3 mg/ml EDTA had been previously filled in a tube for recovery to prevent blood clotting. After blood recovery, the blood was thoroughly blended and the mixture was centrifuged at 2,000 G for 25 minutes. After the supernatant was recovered, the product was used as a plasma sample.
The number of oocytes was counted by referring to the method described in Eur. J. Endocrinol., 138, 594-600 (1998).
Where retention of oocytes in the oviducal ampulla was confirmed by stereomicroscopic observation of the oviduct, the ampulla was punctured with a 27-gauge needle for syringe (Terumo) to retrieve the oocytes. After granulosa cells surrounding the oocytes were removed by trypsin treatment, the number of oocytes was counted. Where retention of oocytes in the oviducal ampulla was not confirmed by stereomicroscopic observation of the oviduct, a with 27-gauge needle with the polished tip for syringe was inserted into the tubal ostium and more than 400 μL of saline was flushed into the oviduct and uterine for rinsing. Then, the presence or absence of oocytes in the effluent was observed.
The blood estradiol level was measured by radioimmunoassay (DPC.Estradiol Kit, Iatron, Inc.).
The blood progesterone level was measured by radioimmunoassay (DPC.Progesterone, Iatron, Inc.).

[5] = SW620 tumor-bearing BALB/cAnN-nu mice, 1 mM, 24 mol/day/mouse×14 days (24 nmol for Compound No. 305)
[6] = SW620 tumor-bearing mice, 0.1 mM, 1/10 dose of Metastin, 2.4 mol (nmol)/day/mouse×14 days
[7] = s.c. 2.0 nmol/animal (Groups C, E)
[8] = s.c. 6.7 nmol/animal (Groups B, D)

| SMILES | intracellular Ca ion level-increasing activity [specific activity to Metastin (1-54)] (hOT7T175 [1]) | Specific Act. (EC50/MS10 EC50) (hOT7T175 [2]) | tumor growth inhibition (tumor size) compared to the vehicle group [3, 5] | effect of tumor growth inhibition relative to Metastin ([3]; SW620 tumor-bearing mice) [times] | tumor growth inhibition (tumor size) compared to the vehicle group [3, 6] | progesterone level compared with hCG administration [4] | dose to be administered for induction of ovulation equivalent to hCG [4] | number of oocytes in average per rat [4, 7] [oocytes] | number of oocytes in average per rat [4, 8] [oocytes] | blood estradiol level [4, 7] | blood progesterone level [4, 7] | blood estradiol level [4, 8] | blood progesterone level [4, 8] | tumor growth inhibition (tumor size) compared with the Metastin group ([3]; SW620 tumor-bearing mice, same dose as Metastin, 24 mol/day/mouse×14 days) | rats ovulated ([4]; Group E, s.c. 2.0 mmol (so in the source) per animal) |
| --- | --- | --- | --- | --- | --- | --- | --- | --- | --- | --- | --- | --- | --- | --- | --- |
| CNC(=N)NCCC[C@H](NC(=O)[C@H](CC(C)C)NC(=O)NNC(=O)[C@H](Cc1ccccc1)NC(=O)[C@H](CO)NC(=O)[C@H](CC(N)=O)NC(=O)[C@@H](Cc1ccncc1)NC(=O)[C@H](N)Cc1ccc(O)cc1)C(=O)N[C@@H](Cc1ccccc1)C(N)=O [Compound No. 305, D-Tyr-D-Pya(4)-Asn-Ser-Phe-AzaGly-Leu-Arg(Me)-Phe-NH2] (H-[dY][d4Pal]NSF[azaGly]L[Arg(Me)]F-NH2) | 5 | 2.0 | significant effect of tumor growth inhibition from Days 5 to 9 and on Day 11 | 10 | significant tumor growth inhibition activity from Days 5 to 11 | lower than in the hCG administration | at least 2.0 mmol/animal | 29.4 | 32.6 | no difference was found among Groups A, B, C and D | less than a half of the level in Group A | no difference was found among Groups A, B, C and D | less than a half of the level in Group A | – | – |
| CNC(=N)NCCC[C@H](NC(=O)[C@H](CC(C)C)NC(=O)NNC(=O)[C@H](Cc1ccccc1)NC(=O)[C@H](CO)NC(=O)[C@H](CC(N)=O)NC(=O)CCc1cccnc1)C(=O)N[C@@H](Cc1ccccc1)C(N)=O [Compound No. 322, 3-(3-Pyridyl)propionyl-Asn-Ser-Phe-AzaGly-Leu-Arg(Me)-Phe-NH2] ({Propanoyl(3-(3-pyridyl))}-NSF[azaGly]L[Arg(Me)]F-NH2) | 1 | 5.4 | significant tumor growth inhibition activity from Days 6 to 11 | 10 | significant tumor growth inhibition activity in a 1/10 dose (2.4 mol/day/mouse×14 days) of Metastin from Days 6 to 8 | lower than in the hCG administration | at least 6.7 mmol/animal | 11.6 | 29.6 | tendency to show a higher level in rats with no ovulation induction | very low level | no difference was found among Groups A, B, C and D | less than a half of the level in Group A | on Day 11, showed a significant tumor growth inhibition activity even when compared with the Metastin group | 3 out of 5 |
